Earlier results, collected in PubChem BioAssay AID1259409 (Chemical Carcinogenesis Research Information System (CCRIS), 2018).
Several values for one entry are separate records, joined by “and”; a condition that tells them apart may be missing. Equal entries are not always repeated.

Tested on: rodent chemically induced tumor inhibition, incidence and multiplicity
Experiment: CCRIS tumor inhibitor studies

SMILES | tumour outcome (control, treated, inhibition, significance) (Carcinogen: 7,12-DIMETHYLBENZ[A]ANTHRACENE (DMBA) [57-97-6], Dose [Inhibitor]: 50 MG/KG/D FOR 37 WK (STUDY DURATION: 37 WK), Route [Inhibitor]: ORAL GAVAGE, Species: MOUSE, Strain/Sex: SENCAR/FEMALE, Target Tissue: Type of Lesion: MAMMARY: CARCINOMA, Dose [Carcinogen]: 20 UG/D FOR 6 WKS (STUDY DURATION: 37 WKS), Promoter: MEDROXYPROGESTERONE ACETATE (71-58-9)) | tumour outcome (control, treated, inhibition, significance) (Carcinogen: ESTRADIOL, 50-28-2, Dose [Inhibitor]: 0, 25 MG PELLET 2 PELLETS IMPLANTED EVERY 3 MO BEGINNING 15 D PRIOR TO CARCINOGEN DOSE (STUDY DURATION: 8 MO), Route [Inhibitor]: SUBCUTANEOUS IMPLANT, Species: HAMSTER, Strain/Sex: SYRIAN/MALE, Target Tissue: Type of Lesion: KIDNEY: TUMOR, Dose [Carcinogen]: 25 MG PELLET IMPLANTED EVERY 3 MO, Promoter: NONE USED) | tumour outcome (control, treated, inhibition, significance) (Carcinogen: N-METHYL-N-NITROSOUREA, 684-93-5, Dose [Inhibitor]: 0, 5 MG/KG BW/D 2/WK TO DORSAL AREA STARTING 10 D BEFORE CARCINOGEN TREATMENT FOR THE DURATION OF THE STUDY (STUDY DURAT, Route [Inhibitor]: SUBCUTANEOUSLY, Species: RAT, Strain/Sex: SPRAGUE-DAWLEY/FEMALE, Target Tissue: Type of Lesion: MAMMARY GLAND: TUMOR, Dose [Carcinogen]: 50 MG/KG BW 2/WK FOR 1 WK BW 43-54 POSTNATAL DAYS) | tumour outcome (control, treated, inhibition, significance) (Carcinogen: N-METHYL-N-NITROSOUREA, 684-93-5, Dose [Inhibitor]: 0, 20 MG/KG OF DIET FOR DURATION OF STUDY BEGINNING 1 WK POST CARCINOGEN DOSE (STUDY DURATION: 5 MO), Route [Inhibitor]: ORAL, Species: RAT, Strain/Sex: SPRAGUE-DAWLEY/FEMALE, Target Tissue: Type of Lesion: MAMMARY GLAND: TUMOR, Dose [Carcinogen]: 50 MG/KG BW ONCE, Promoter: NONE USED) | tumour outcome (control, treated, inhibition, significance) (Carcinogen: N-METHYL-N-NITROSOUREA, 684-93-5, Dose [Inhibitor]: 0, 60 MG/KG OF DIET FOR DURATION OF STUDY BEGINNING 1 WK POST CARCINOGEN DOSE (STUDY DURATION: 5 MO), Route [Inhibitor]: ORAL, Species: RAT, Strain/Sex: SPRAGUE-DAWLEY/FEMALE, Target Tissue: Type of Lesion: MAMMARY GLAND: TUMOR, Dose [Carcinogen]: 50 MG/KG BW ONCE, Promoter: NONE USED) | tumour outcome (control, treated, inhibition, significance) (Carcinogen: 7,12-DIMETHYLBENZ[A]ANTHRACENE, 57-97-6, Dose [Inhibitor]: 1.7 NMOL IN 0.2 ML ACETONE 1 HR PRIOR TO EACH PROMOTER DOSE FOR 12 WK (STUDY DURATION: 14 WK), Route [Inhibitor]: DERMAL, Species: MOUSE, Strain/Sex: SENCAR/FEMALE, Target Tissue: Type of Lesion: SKIN: PAPILLOMA, Dose [Carcinogen]: 200 NMOL IN 0.2 ML ACETONE ONCE, Promoter: 12-O-TETRADECANOYLPHORBOL-13-ACETATE, 16561-29-8) | tumour outcome (control, treated, inhibition, significance) (Carcinogen: 7,12-DIMETHYLBENZ[A]ANTHRACENE, 57-97-6, Dose [Inhibitor]: 1.7 NMOL IN 0.2 ML ACETONE 1 HR PRIOR TO EACH PROMOTER DOSE FOR 20 WK (STUDY DURATION: 22 WK), Route [Inhibitor]: DERMAL, Species: MOUSE, Strain/Sex: CD-1/FEMALE, Target Tissue: Type of Lesion: SKIN: PAPILLOMA, Dose [Carcinogen]: 200 NMOL IN 0.2 ML ACETONE ONCE, Promoter: 12-O-TETRADECANOYLPHORBOL-13-ACETATE, 16561-29-8) | tumour outcome (control, treated, inhibition, significance) (Carcinogen: 7,12-DIMETHYLBENZ[A]ANTHRACENE, 57-97-6, Dose [Inhibitor]: 17 NMOL IN 0.2 ML ACETONE 1 HR PRIOR TO EACH PROMOTER DOSE FOR 12 WK (STUDY DURATION: 14 WK), Route [Inhibitor]: DERMAL, Species: MOUSE, Strain/Sex: SENCAR/FEMALE, Target Tissue: Type of Lesion: SKIN: PAPILLOMA, Dose [Carcinogen]: 200 NMOL IN 0.2 ML ACETONE ONCE, Promoter: 12-O-TETRADECANOYLPHORBOL-13-ACETATE, 16561-29-8) | tumour outcome (control, treated, inhibition, significance) (Carcinogen: 7,12-DIMETHYLBENZ[A]ANTHRACENE, 57-97-6, Dose [Inhibitor]: 17 NMOL IN 0.2 ML ACETONE 1 HR PRIOR TO EACH PROMOTER DOSE FOR 20 WK (STUDY DURATION: 22 WK), Route [Inhibitor]: DERMAL, Species: MOUSE, Strain/Sex: CD-1/FEMALE, Target Tissue: Type of Lesion: SKIN: PAPILLOMA, Dose [Carcinogen]: 200 NMOL IN 0.2 ML ACETONE ONCE, Promoter: 12-O-TETRADECANOYLPHORBOL-13-ACETATE, 16561-29-8) | tumour outcome (control, treated, inhibition, significance) (Carcinogen: 7,12-DIMETHYLBENZ[A]ANTHRACENE, 57-97-6, Dose [Inhibitor]: 170 NMOL IN 0.2 ML ACETONE 1 HR PRIOR TO EACH PROMOTER DOSE FOR 12 WK (STUDY DURATION: 14 WK), Route [Inhibitor]: DERMAL, Species: MOUSE, Strain/Sex: SENCAR/FEMALE, Target Tissue: Type of Lesion: SKIN: PAPILLOMA, Dose [Carcinogen]: 200 NMOL IN 0.2 ML ACETONE ONCE, Promoter: 12-O-TETRADECANOYLPHORBOL-13-ACETATE, 16561-29-8) | tumour outcome (control, treated, inhibition, significance) (Carcinogen: 7,12-DIMETHYLBENZ[A]ANTHRACENE, 57-97-6, Dose [Inhibitor]: 170 NMOL IN 0.2 ML ACETONE 1 HR PRIOR TO EACH PROMOTER DOSE FOR 20 WK (STUDY DURATION: 22 WK), Route [Inhibitor]: DERMAL, Species: MOUSE, Strain/Sex: CD-1/FEMALE, Target Tissue: Type of Lesion: SKIN: PAPILLOMA, Dose [Carcinogen]: 200 NMOL IN 0.2 ML ACETONE ONCE, Promoter: 12-O-TETRADECANOYLPHORBOL-13-ACETATE, 16561-29-8)
O=C(c1ccc(OCCN2CCCCC2)cc1)c1c(-c2ccc(O)cc2)sc2cc(O)ccc12 | 10/21 (48%); 5/17 (29%), 40%, p=0.20 | 5/5 (100%), 3/4 (75%), 25%, not significant | 80%, 26%, 67%, p<0.001 | 23/24 (96%), 10/12 (83%), 14%, p=0.26 and 29/30 (97%), 14/30 (47%), 52%, p=0.0001 | 23/24 (96%), 8/12 (67%), 30%, p=0.03 and 29/30 (97%), 15/30 (50%), 48%, p=0.0002 |  |  |  |  |  | 
C/C(=C\c1ccc(C(=O)O)cc1)c1ccc2c(c1)SCCC2(C)C |  |  |  |  |  | 100%, 70%, 30%, not calculated | 94%, 67%, 29%, not calculated | 100%, 72%, 28%, not calculated | 94%, 33%, 65%, not calculated | 100%, 0%, 100%, not calculated | 94%, 0%, 100%, not calculated
